Reference: ChEMBL document CHEMBL1136743, “Design, synthesis, and biological evaluation of C9- and C2-substituted pyrazolo[4,3-e]-1,2,4-triazolo[1,5-c]pyrimidines as new A2A and A3 adenosine receptors antagonists” (J Med Chem, 2003)
Blank lines part the entries; values can stand above or below the compound they belong to.

What was measured:
Adenosine receptor A3 [1] = target: T1, Adenosine receptor A3 (Homo sapiens, UniProt P0DMS8); assay: biochemical
T1 sequence (P0DMS8 whole entry): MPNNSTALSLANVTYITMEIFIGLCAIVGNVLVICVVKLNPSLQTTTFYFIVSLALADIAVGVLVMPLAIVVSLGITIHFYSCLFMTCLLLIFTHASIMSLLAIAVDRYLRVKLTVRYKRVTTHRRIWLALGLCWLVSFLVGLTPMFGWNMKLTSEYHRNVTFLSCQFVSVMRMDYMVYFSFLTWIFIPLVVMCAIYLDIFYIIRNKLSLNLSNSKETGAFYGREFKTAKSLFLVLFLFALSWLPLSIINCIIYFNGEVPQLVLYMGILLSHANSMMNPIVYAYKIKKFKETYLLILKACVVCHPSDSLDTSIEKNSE
Description: (§1) Displacement of [3H]- MRE 308F20 binding from human Adenosine A3 receptor expressed in CHO cells

Adenosine receptor A2a [2] = target: T2, Adenosine receptor A2a (Homo sapiens, UniProt P29274); assay: biochemical
Adenosine receptor A2b [3] = target: T3, Adenosine receptor A2b (Homo sapiens, UniProt P29275); assay: biochemical
T3 sequence (P29275 whole entry): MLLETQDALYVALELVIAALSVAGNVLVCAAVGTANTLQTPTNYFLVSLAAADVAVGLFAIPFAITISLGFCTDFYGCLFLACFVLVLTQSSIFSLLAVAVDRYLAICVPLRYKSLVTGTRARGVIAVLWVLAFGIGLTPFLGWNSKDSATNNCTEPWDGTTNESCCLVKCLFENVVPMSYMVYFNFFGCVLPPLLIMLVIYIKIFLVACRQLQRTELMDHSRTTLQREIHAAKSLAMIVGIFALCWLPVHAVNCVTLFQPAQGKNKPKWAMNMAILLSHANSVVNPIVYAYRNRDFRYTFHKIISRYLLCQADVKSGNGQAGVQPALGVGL
Description: (§2) Displacement of [3H]- DPCPX from human adenosine A2B receptor expressed in HEK293 cells

Adenosine receptor A1 = target: T4, Adenosine receptor A1 (Homo sapiens, UniProt P30542); assay: biochemical
T4 sequence (P30542 whole entry): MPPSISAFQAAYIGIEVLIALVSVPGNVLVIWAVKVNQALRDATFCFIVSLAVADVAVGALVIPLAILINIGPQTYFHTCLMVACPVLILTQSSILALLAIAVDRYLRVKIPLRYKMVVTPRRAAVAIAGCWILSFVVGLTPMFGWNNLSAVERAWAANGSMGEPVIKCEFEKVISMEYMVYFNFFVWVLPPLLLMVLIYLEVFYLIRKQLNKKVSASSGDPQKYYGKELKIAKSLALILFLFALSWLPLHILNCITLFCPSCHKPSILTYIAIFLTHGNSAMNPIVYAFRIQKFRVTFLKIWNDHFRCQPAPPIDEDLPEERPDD
Description: Displacement of [3H]- DPCPX binding at human Adenosine A1 receptor expressed in CHO cells

Adenosine receptor A2b [4] = target: T3, Adenosine receptor A2b; assay: biochemical; remark: listed apart in the source
Description: as §2

Adenosine receptor A2a [5] = target: T2, Adenosine receptor A2a; assay: biochemical; remark: listed apart in the source
Adenosine receptor A2a [6] = target: T2, Adenosine receptor A2a
Adenosine receptor A3 [7] = target: T1, Adenosine receptor A3
Adenosine receptor A3 [8] = target: T1, Adenosine receptor A3; conditions: cho
Description: as §1

Adenosine receptor A2b [9] = target: T5, Adenosine receptor A2b (Rattus norvegicus, UniProt P29276)
T5 sequence (P29276 whole entry): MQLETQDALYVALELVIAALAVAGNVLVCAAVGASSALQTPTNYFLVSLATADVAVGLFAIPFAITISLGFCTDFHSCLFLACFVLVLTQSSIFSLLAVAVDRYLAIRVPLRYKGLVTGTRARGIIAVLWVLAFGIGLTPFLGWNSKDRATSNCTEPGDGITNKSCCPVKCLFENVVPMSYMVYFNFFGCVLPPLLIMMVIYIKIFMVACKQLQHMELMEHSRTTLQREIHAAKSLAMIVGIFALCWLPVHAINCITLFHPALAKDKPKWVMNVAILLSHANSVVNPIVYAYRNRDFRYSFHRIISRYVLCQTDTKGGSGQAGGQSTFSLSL

T2 sequence (P29274 whole entry): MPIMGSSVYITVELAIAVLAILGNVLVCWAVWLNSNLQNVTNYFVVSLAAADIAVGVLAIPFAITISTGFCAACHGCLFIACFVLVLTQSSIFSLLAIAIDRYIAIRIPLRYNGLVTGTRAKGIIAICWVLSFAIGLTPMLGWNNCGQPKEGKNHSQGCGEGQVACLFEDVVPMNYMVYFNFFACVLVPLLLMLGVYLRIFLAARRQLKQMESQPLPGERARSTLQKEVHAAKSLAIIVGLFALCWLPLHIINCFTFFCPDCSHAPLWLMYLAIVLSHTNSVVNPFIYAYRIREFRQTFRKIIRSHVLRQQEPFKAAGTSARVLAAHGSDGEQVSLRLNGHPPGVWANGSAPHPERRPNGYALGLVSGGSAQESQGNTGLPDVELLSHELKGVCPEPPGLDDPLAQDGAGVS

Compound: COc1ccc(CC(=O)Nc2nc3nn(C)c(SC)c3c3nc(-c4ccco4)nn23)cc1
Ki (Adenosine receptor A3 [1]): > 1000 nM

Compound: CSc1c2c(nc(NC(=O)Cc3ccc4c(c3)OCO4)n3nc(-c4ccco4)nc23)nn1C
IC50 (Adenosine receptor A3 [7]): 466 nM

Compound: CN1CCN(c2c3c(nc(N)n4nc(-c5ccco5)nc34)nn2C)CC1 [listing 2 of 2 here]
Ki (Adenosine receptor A3 [1]): > 1000 nM

Compound: COc1ccc(NC(=O)Nc2nc3nn(C)c(N4CCN(C)CC4)c3c3nc(-c4ccco4)nn23)cc1
Ki (Adenosine receptor A3 [1]): > 1000 nM
Ki (Adenosine receptor A2a [5]): > 1000 nM

Compound: COc1ccc(NC(=O)Nc2nc3nn(C)c(SC)c3c3nc(-c4ccco4)nn23)cc1
IC50 (Adenosine receptor A3 [7]): 813 nM

Compound: CSc1c2c(nc(N)n3nc(-c4ccco4)nc23)nn1CCCc1ccccc1
Ki (Adenosine receptor A3 [1]): > 1000 nM

Compound: CCNc1c2c(nc(NC(=O)Nc3ccc(OC)cc3)n3nc(-c4ccco4)nc23)nn1C [listing 2 of 2 here]
IC50 (Adenosine receptor A2a [6]): 61 nM
IC50 (Adenosine receptor A3 [7]): 45 nM

Compound: Nc1nc2c(cnn2CCc2ccccc2)c2nc(-c3ccco3)nn12 [SCH-58261]
Ki (Adenosine receptor A2b [9]): > 1000 nM

Compound: CCNc1c2c(nc(N)n3nc(-c4ccco4)nc23)nn1C
IC50 (Adenosine receptor A3 [7]): 103 nM

Results, then the compound that gave them:

Ki (Adenosine receptor A3 [1]): > 1000 nM
Ki (Adenosine receptor A2a [2]): > 1000 nM
Ki (Adenosine receptor A2b [3]): > 1000 nM
Ki (Adenosine receptor A1): > 1000 nM
Compound: Nc1nc2c(cnn2CCc2ccccc2)c2nc(-c3ccc(CN4CCOCC4)o3)nn12

Ki (Adenosine receptor A2b [4]): > 1000 nM
Ki (Adenosine receptor A3 [1]): > 1000 nM
Ki (Adenosine receptor A1): 235 nM
Ki (Adenosine receptor A2a [5]): > 1000 nM
Compound: Nc1nc2c(cnn2CCc2ccccc2)c2nc(-c3ccccc3)nn12

IC50 (Adenosine receptor A2a [6]): 14.8 nM
IC50 (Adenosine receptor A3 [7]): 852 nM
Compound: CCCSc1c2c(nc(N)n3nc(-c4ccco4)nc23)nn1C

Ki (Adenosine receptor A3 [8]): > 1000 nM
Compound: CN1CCN(c2c3c(nc(N)n4nc(-c5ccco5)nc34)nn2C)CC1 [listing 1 of 2 here]

Ki (Adenosine receptor A3 [1]): > 1000 nM
Ki (Adenosine receptor A2b [3]): 180 nM
Compound: CSc1c2c(nc(NC(=O)Cc3ccc(CC(C)C)cc3)n3nc(-c4ccco4)nc23)nn1C

Ki (Adenosine receptor A3 [1]): > 1000 nM
Ki (Adenosine receptor A2a [2]): > 1000 nM
Ki (Adenosine receptor A2b [3]): > 1000 nM
Ki (Adenosine receptor A1): > 1000 nM
Compound: CN1CCN(Cc2ccc(-c3nc4c5cnn(CCc6ccccc6)c5nc(N)n4n3)o2)CC1

Ki (Adenosine receptor A3 [1]): 14 nM
Ki (Adenosine receptor A2a [5]): 21 nM
Compound: CCNc1c2c(nc(NC(=O)Nc3ccc(OC)cc3)n3nc(-c4ccco4)nc23)nn1C [listing 1 of 2 here]

Ki (Adenosine receptor A2b [3]): > 1000 nM
Ki (Adenosine receptor A2a [5]): > 1000 nM
Compound: Cn1nc2nc(N)n3nc(-c4ccco4)nc3c2c1Nc1ccc(O)cc1

IC50 (Adenosine receptor A2a [6]): 6.1 nM
IC50 (Adenosine receptor A3 [7]): 188 nM
Compound: CSc1c2c(nc(N)n3nc(-c4ccco4)nc23)nn1C

Ki (Adenosine receptor A3 [1]): > 1000 nM
Ki (Adenosine receptor A2b [3]): > 1000 nM
Ki (Adenosine receptor A1): > 1000 nM
Ki (Adenosine receptor A2a [5]): > 1000 nM
Compound: CSc1c2c(nc(N)n3nc(-c4ccc(CN5CCN(C)CC5)o4)nc23)nn1C
